Where two headings read alike, the source gives them in different places. Some results are limits rather than exact numbers.

One molecule from patent publication US9833454B2, “Difluoromethoxy compound with low bioactivation potential for the reduction of beta-amyloid production” (BRISTOL-MYERS SQUIBB COMPANY, priority 2014, dated 2017) can be followed below.

The target in one data set is T1, CYP2C8 (Homo sapiens, UniProt P10632).
T1 sequence (P10632 1-490): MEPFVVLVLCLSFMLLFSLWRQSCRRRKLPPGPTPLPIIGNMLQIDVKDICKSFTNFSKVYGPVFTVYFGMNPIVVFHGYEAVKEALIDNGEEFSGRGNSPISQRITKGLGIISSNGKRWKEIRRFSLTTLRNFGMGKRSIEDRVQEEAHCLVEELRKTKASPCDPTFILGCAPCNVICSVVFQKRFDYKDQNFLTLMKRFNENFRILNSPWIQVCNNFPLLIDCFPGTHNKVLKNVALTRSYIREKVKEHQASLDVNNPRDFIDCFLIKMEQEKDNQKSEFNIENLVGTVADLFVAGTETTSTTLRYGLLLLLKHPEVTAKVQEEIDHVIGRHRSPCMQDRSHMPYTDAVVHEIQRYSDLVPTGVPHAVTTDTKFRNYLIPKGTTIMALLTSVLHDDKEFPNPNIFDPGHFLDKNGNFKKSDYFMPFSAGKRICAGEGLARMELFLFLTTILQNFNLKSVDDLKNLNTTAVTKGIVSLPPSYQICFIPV
Put plainly: Inhibition of CYP enzymes in human liver microsomes (HLM), CYP2C8. The format is in vitro ADME. A general note: Liver microsomes are vesicles of endoplasmic reticulum, rich in cytochrome P450 enzymes.

In the next data set the test system is Mouse brain Aβ42. Put plainly: Mouse brain Aβ42. The format is in vivo. The note with it: for Mouse Aβ42: mouse brain; for B/P / Compound concentration in the Mouse Aβ42 study: mouse; for Compound concentration in the Mouse Aβ42 study: matrix not given. The protocol:
Aβ42 IC50 was determined as described by Gillman, J. E. Starrett Jr., M. F. Parker, et al., “Discovery and evaluation of BMS-708163, a potent, and orally bioavailable gamma-secretase inhibitor”, ACS Medicinal Chemistry Letters, vol. 1., pp. 120-124, 2010. Mouse brain Aβ42 was determined as described by J. H. Toyn, X-A. Lin, M. W. Thompson et al., “Viable mouse gene ablations that robustly alter bran Abeta levels are are”, Biomed. Central Neuroscience, vol. 11, pp. 143, […].

The target of another data set is T2, CYP2B6 (Homo sapiens, UniProt P20813).
T2 sequence (P20813 1-491): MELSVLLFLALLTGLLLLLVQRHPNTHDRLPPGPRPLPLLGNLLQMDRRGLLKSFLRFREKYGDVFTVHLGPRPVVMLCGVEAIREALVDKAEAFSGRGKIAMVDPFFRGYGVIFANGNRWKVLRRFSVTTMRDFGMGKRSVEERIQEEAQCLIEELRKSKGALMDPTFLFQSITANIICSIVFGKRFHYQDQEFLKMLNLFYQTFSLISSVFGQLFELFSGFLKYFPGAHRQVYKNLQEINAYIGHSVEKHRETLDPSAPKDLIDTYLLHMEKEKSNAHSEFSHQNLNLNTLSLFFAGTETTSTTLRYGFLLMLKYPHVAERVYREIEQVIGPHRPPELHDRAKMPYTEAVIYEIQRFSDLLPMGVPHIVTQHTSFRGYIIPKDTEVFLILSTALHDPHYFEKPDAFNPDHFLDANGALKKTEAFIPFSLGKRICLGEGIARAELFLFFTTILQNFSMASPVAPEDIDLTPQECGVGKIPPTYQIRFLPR
Put plainly: Inhibition of CYP enzymes in human liver microsomes (HLM), CYP2B6. The format is in vitro ADME.

The next data set has as its target CYP2C9 (Homo sapiens, UniProt P11712). As to the kind of experiment: Inhibition of recombinant CYP enzymes (rCYP), CYP2C9. Format: in vitro ADME. As to conditions: average of two experiments, read-out: rCYP IC50 2C9.
The target of another data set is CYP2C19 (Homo sapiens, UniProt P33261). As to the kind of experiment: Inhibition of recombinant CYP enzymes (rCYP), CYP2C19. The format is in vitro ADME. The note with it: average of two experiments, read-out: rCYP IC50 2C19.
Chain of CYP2C19 (P33261 whole entry): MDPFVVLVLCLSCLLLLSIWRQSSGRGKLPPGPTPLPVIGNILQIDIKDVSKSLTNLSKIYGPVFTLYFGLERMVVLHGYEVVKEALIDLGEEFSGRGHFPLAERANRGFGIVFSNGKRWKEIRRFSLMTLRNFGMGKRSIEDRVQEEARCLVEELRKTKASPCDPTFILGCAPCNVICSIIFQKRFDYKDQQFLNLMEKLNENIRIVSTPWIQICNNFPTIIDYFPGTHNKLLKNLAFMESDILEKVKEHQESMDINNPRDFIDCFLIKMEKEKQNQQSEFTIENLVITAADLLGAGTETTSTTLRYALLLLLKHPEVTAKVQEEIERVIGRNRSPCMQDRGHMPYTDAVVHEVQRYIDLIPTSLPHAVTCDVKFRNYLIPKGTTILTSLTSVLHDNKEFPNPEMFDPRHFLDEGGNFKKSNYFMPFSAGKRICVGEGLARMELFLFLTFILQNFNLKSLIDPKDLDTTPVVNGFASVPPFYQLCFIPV

Chain of CYP2C9 (P11712 whole entry): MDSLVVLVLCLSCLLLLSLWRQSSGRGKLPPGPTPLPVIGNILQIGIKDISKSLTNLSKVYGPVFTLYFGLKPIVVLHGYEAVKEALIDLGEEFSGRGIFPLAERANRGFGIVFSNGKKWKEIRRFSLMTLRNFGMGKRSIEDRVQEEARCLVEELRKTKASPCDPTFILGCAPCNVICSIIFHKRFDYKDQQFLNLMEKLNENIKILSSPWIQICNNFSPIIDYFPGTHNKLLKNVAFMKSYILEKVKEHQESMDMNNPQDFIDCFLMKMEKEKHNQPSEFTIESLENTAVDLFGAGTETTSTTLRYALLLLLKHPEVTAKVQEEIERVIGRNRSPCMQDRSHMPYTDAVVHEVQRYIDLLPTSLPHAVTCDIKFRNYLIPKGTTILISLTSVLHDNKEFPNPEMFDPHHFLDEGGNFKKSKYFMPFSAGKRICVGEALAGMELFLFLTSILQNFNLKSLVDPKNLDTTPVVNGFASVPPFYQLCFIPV

Turning to `CNc1nc(Nc2ccc(-n3cnc(C)n3)c(OC(F)F)c2)nc2c1C(C)(C)CC2c1ccc(F)cc1` (single isomer, unassigned) [Enantiomer 1, N2-(3-(difluoromethoxy)-4-(3-methyl-1H-1,2,4-triazol-1-yl)phenyl)-7-(4-fluorophenyl)-N4,5,5-trimethyl-6,7-dihydro-5H-cyclopenta[d]pyrimidine-2,4-diamine], the IC50 is 4.2 µM at CYP2C8 (HLM, 0 min preincubation, read-out: IC50-0 min 2C8); 2.2 µM against CYP2C8 (IC50-30 min 2C8, HLM, 30 min preincubation with NADPH); over 40 µM on CYP2B6 (0 min preincubation, read-out: IC50-0 min 2B6); over 40 µM at CYP2B6 (read-out: IC50-30 min 2B6, 30 min preincubation with NADPH); 1.3 µM on CYP2C9; 0.96 µM at CYP2C19. Also, on CYP2C8 (HLM, IC50 shift 0 vs 30 min preincubation (TDI ratio)), the “IC50 Ratio 2C8” value was 1.9. Besides, the “Mouse Aβ42” value in the data set with Mouse brain Aβ42 (8 mpk) turned out to be 68%; in the data set on Mouse brain Aβ42 (30 mpk), 29%. The B/P was found to be 0.7 in the data set on Mouse brain Aβ42 (8 mpk) and 1.4 in the data set on Mouse brain Aβ42 (30 mpk). Moreover, the “Compound concentration in the Mouse Aβ42 study” value in the data set with Mouse brain Aβ42 (8 mpk) was 0.391 µM; in the data set with Mouse brain Aβ42 (30 mpk), 1.334 µM. Also, the “IC50 Ratio 2B6” value at CYP2B6 (IC50 shift 0 vs 30 min preincubation (TDI ratio)) worked out at 1.0.

A word on the IC50: it is the concentration that gives 50% inhibition.
